Results reported in patent US8410153B2, “Naphthalene isoxazoline invertebrate pest control agents” (E.I. du Pont de Nemours and Company, priority 2007, dated 2013).

Legend:
Type in all cases: in vivo
[1] = system: diamondback moth (Plutella xylostella); test: Test A: control of diamondback moth on radish plant, foliar spray; conditions: sprayed at 50 ppm, held 6 days
Excerpt: For evaluating control of diamondback moth (Plutella xylostella) the test unit consisted of a small open container with a 12-14-day-old radish plant inside. This was pre-infested with about 50 neonate larvae that were dispensed into the test unit via corncob grits using a bazooka inoculator. The larvae moved onto the test plant after being dispensed into the test unit.
(§1) Test compounds were formulated using a solution containing 10% acetone, 90% water and 300 ppm X-77™ Spreader Lo-Foam Formula non-ionic surfactant containing alkylarylpolyoxyethylene, free fatty acids, glycols and isopropanol (Loveland Industries, Inc. Greeley, Colo., USA). The formulated compounds were applied in 1 mL of liquid through a SUJ2 atomizer nozzle with ⅛ JJ custom body (Spraying Systems Co. Wheaton, Ill., USA) positioned 1.27 cm (0.5 inches) above the top of each test unit. All experimental compounds in these tests were sprayed at 50 ppm, and the test was replicated three times. After spraying of the formulated test compound, each test unit was allowed to dry for 1 h and then a black, screened cap was placed on top. The test units were held for 6 days in a growth chamber at 25° C. and 70% relative humidity. Plant feeding damage was then visually assessed based on foliage consumed, and a pest mortality rating was also counted and calculated for each test unit.

[2] = system: fall armyworm (Spodoptera frugiperda); test: Test B: control of fall armyworm on corn (maize) plant, foliar spray; conditions: sprayed at 50 ppm
Experimental: as §1
For evaluating control of fall armyworm (Spodoptera frugiperda) the test unit consisted of a small open container with a 4-5-day-old corn (maize) plant inside. This was pre-infested (using a core sampler) with 10-15 1-day-old larvae on a piece of insect diet. Test compounds were formulated and sprayed at 50 ppm as described for Test A and replicated three times. After spraying, the test units were maintained in a growth chamber and then the control efficacy was rated for each test unit as described for Test A.

[3] = system: western flower thrips (Frankliniella occidentalis); test: Test E: control of western flower thrips on Soleil bean plant, contact and/or systemic; conditions: held 6 days
Experimental: as §1
For evaluating control of the western flower thrips (Frankliniella occidentalis) through contact and/or systemic means, the test unit consisted of a small open container with a 5-7-day-old Soleil Bean plant inside. Test compounds were formulated and sprayed as described for Test A. All experimental compounds in these tests were sprayed at 250 or 50 ppm as noted, and the test was replicated three times. After spraying, the test units were allowed to dry for 1 h, 22-27 adult thrips were added to each unit and then a black, screened cap was placed on top. The test units were held for 6 days at 25° C. and 45-55% relative humidity. A mortality rating was assessed along with a plant damage rating for each test unit.

SMILES	levels of control efficacy (20% or less feeding damage or 80% or more mortality) [1]	levels of control efficacy (20% or less feeding damage or 80% or more mortality) [2]	levels of control efficacy (20% or less feeding damage or 80% or more mortality) ([3]; sprayed at 50 ppm)	levels of control efficacy (20% or less feeding damage or 80% or more mortality) ([3]; sprayed at 250 ppm)
CC(NC(=O)c1ccc(C2=NOC(c3cc(Cl)cc(Cl)c3)(C(F)(F)F)C2)c2ccccc12)C(=O)NCC(F)(F)F (mixture of isomers) [Compound 16]	very good to excellent	very good to excellent	very good to excellent	very good to excellent
CC(O)(CNC(=O)c1ccc(C2=NOC(c3cccc(C(F)(F)F)c3)(C(F)(F)F)C2)c2ccccc12)C(F)(F)F (mixture of isomers) [Compound 45]	very good to excellent	very good to excellent		
CCC(CO)NC(=O)c1ccc(C2=NOC(c3cccc(C(F)(F)F)c3)(C(F)(F)F)C2)c2ccccc12 (mixture of isomers) [Compound 46]	very good to excellent	very good to excellent		
CC(NC(=O)c1ccc(C2=NOC(c3cc(Cl)cc(C(F)(F)F)c3)(C(F)(F)F)C2)c2ccccc12)C(=O)NCC(F)(F)F (mixture of isomers) [Compound 127]		very good to excellent		
CC(C)NC(=O)C(C)NC(=O)c1ccc(C2=NOC(c3cc(Cl)cc(C(F)(F)F)c3)(C(F)(F)F)C2)c2ccccc12 (mixture of isomers) [Compound 128]		very good to excellent		
CCCNC(=O)C(C)NC(=O)c1ccc(C2=NOC(c3cc(Cl)cc(C(F)(F)F)c3)(C(F)(F)F)C2)c2ccccc12 (mixture of isomers) [Compound 129]		very good to excellent		
CC(C)CNC(=O)C(C)NC(=O)c1ccc(C2=NOC(c3cc(Cl)cc(C(F)(F)F)c3)(C(F)(F)F)C2)c2ccccc12 (mixture of isomers) [Compound 130]		very good to excellent		
CC(C)SCCNC(=O)c1ccc(C2=NOC(c3cccc(C(F)(F)F)c3)(C(F)(F)F)C2)c2ccccc12 (racemic) [Compound 55]	very good to excellent	very good to excellent		
CC(C)SCCCNC(=O)c1ccc(C2=NOC(c3cccc(C(F)(F)F)c3)(C(F)(F)F)C2)c2ccccc12 (racemic) [Compound 56]	very good to excellent	very good to excellent		
O=C(CNC(=O)c1ccc(C2=NOC(c3cc(Cl)cc(Cl)c3)(C(F)(F)F)C2)c2ccccc12)NCCCl (centres unmarked) [Compound 10]	very good to excellent	very good to excellent		
O=C(CNC(=O)c1ccc(C2=NOC(c3cc(Cl)cc(Cl)c3)(C(F)(F)F)C2)c2ccccc12)NCC(F)(F)C(F)(F)C(F)(F)F (centres unmarked) [Compound 13]	very good to excellent	very good to excellent		
O=C(CNC(=O)c1ccc(C2=NOC(c3cc(Cl)cc(Cl)c3)(C(F)(F)F)C2)c2ccccc12)NCC(F)(F)C(F)(F)F (centres unmarked) [Compound 14]	very good to excellent	very good to excellent		
CCC(O)CNC(=O)c1ccc(C2=NOC(c3cccc(C(F)(F)F)c3)(C(F)(F)F)C2)c2ccccc12 (centres unmarked) [Compound 64]	very good to excellent	very good to excellent		
CC(CO)NC(=O)c1ccc(C2=NOC(c3cc(C(F)(F)F)cc(C(F)(F)F)c3)(C(F)(F)F)C2)c2ccccc12 (centres unmarked) [Compound 68]	very good to excellent	very good to excellent		
O=C(NCCO)c1ccc(C2=NOC(c3cc(C(F)(F)F)cc(C(F)(F)F)c3)(C(F)(F)F)C2)c2ccccc12 (centres unmarked) [Compound 69]	very good to excellent	very good to excellent		
O=C(CNC(=O)c1ccc(C2=NOC(c3cccc(Br)c3)(C(F)(F)F)C2)c2ccccc12)NCC(F)(F)F (centres unmarked) [Compound 70]	very good to excellent	very good to excellent		
CSCCNC(=O)c1ccc(C2=NOC(c3cccc(OC(F)(F)F)c3)(C(F)(F)F)C2)c2ccccc12 (centres unmarked) [Compound 71]	very good to excellent	very good to excellent		
O=C(CNC(=O)c1ccc(C2=NOC(c3cccc(OC(F)(F)F)c3)(C(F)(F)F)C2)c2ccccc12)NCC(F)(F)F (centres unmarked) [Compound 72]	very good to excellent	very good to excellent		
O=C(NCO)c1ccc(C2=NOC(c3cc(Cl)cc(Cl)c3)(C(F)(F)F)C2)c2ccccc12 (centres unmarked) [Compound 82]	very good to excellent	very good to excellent		
CCCNC(=O)C(C)NC(=O)c1ccc(C2=NOC(c3cc(C(F)(F)F)cc(C(F)(F)F)c3)(C(F)(F)F)C2)c2ccccc12 (centres unmarked) [Compound 89]		very good to excellent		
CC(NC(=O)CNC(=O)c1ccc(C2=NOC(c3cc(C(F)(F)F)cc(C(F)(F)F)c3)(C(F)(F)F)C2)c2ccccc12)C(F)(F)F (centres unmarked) [Compound 91]		very good to excellent	very good to excellent	
CC(NC(=O)CNC(=O)c1ccc(C2=NOC(c3cc(Cl)cc(C(F)(F)F)c3)(C(F)(F)F)C2)c2ccccc12)C(F)(F)F (centres unmarked) [Compound 113]	very good to excellent	very good to excellent		
C[S+]([O-])CCNC(=O)c1ccc(C2=NOC(c3cc(Cl)cc(C(F)(F)F)c3)(C(F)(F)F)C2)c2ccccc12 (centres unmarked) [Compound 114]	very good to excellent	very good to excellent		
CC(NC(=O)c1ccc(C2=NOC(c3cc(Cl)cc(C(F)(F)F)c3)(C(F)(F)F)C2)c2ccccc12)C(=O)NC(C)C(F)(F)F (centres unmarked) [Compound 115]	very good to excellent	very good to excellent		
CNC(=O)CNC(=O)c1ccc(C2=NOC(c3cc(Cl)cc(C(F)(F)F)c3)(C(F)(F)F)C2)c2ccccc12 (centres unmarked) [Compound 116]	very good to excellent	very good to excellent		
